What follows are compounds tested on HeLa cells (assay: cells). Conditions: Homo sapiens, HeLa, 65 h, read-out: HeLa Cells Alamar Blue.
Procedure, shortened: (§1)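 Viability by Alamar Blue (5 h) after ~65 h drug treatment; seeding density 2 × 10^4 cells/well in DMEM supplemented with 10% FCS and 2 mM L-Glutamine.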

SMILES	viability at 500 µM
O=C(O)c1ccccc1-c1ccco1 [compound 520, 2-(2-furyl)benzoic acid]	73 ± 11.5%
Cc1oc(-c2ccccc2)cc1CO [compound 521, (2‐methyl‐5‐phenyl‐3‐furyl)methanol]	41.5 ± 15%
Cc1cc(CO)c(-c2ccccc2)o1 [compound 522, (5-methyl-2-phenyl-3-furyl)methanol]	24.3 ± 17.4%
COC(=O)c1ccc(F)cc1Cl [compound 531, methyl 2‐chloro‐4‐fluorobenzoate]	84 ± 11.8%
NC(=O)c1ccccc1C(F)(F)F [compound 532, 2‐(trifluoromethyl)benzamide]	88.3 ± 6.5%
O=C(O)CCc1c[nH]c2ccccc12 [compound 533, 3‐(1H‐indol‐3‐yl)propanoic acid]	94.9 ± 6%
Cc1[nH]c2ccc(C(=O)O)cc2c1C [compound 537, 2,3‐dimethyl‐1H‐indole‐5‐carboxylic acid]	89.3 ± 2.4%
OCc1ccc(-c2cccs2)cc1 [compound 544, (4‐thien‐2‐ylphenyl)methanol]	74.7 ± 10.2%
Cc1nc(-c2ccc(N)cc2)cs1 [compound 547, 4‐(2‐methyl‐1,3‐thiazol‐4‐yl)phenylamine]	74.3 ± 11%

Same assay, conditions: Homo sapiens, HeLa, 65 h, read-out: HeLa Cells Alamar Blue (% survival)

SMILES	viability at 500 µM
O=C(O)c1ccccc1-c1ccco1 [compound 520, 2-(2-furyl)benzoic acid]	73 ± 11.5%
Cc1cc(CO)c(-c2ccccc2)o1 [compound 522, (5-methyl-2-phenyl-3-furyl)methanol]	24.3 ± 17.4%

Same assay, conditions: Homo sapiens, HeLa, read-out: HeLa ED50

SMILES	CC50
O=C(O)c1ccccc1-c1ccco1 [compound 520, 2-(2-furyl)benzoic acid]	> 20 mM

Same assay, conditions: Supplementary Table 1; compound 0.5 mM; percentage of controls; mean ± SD (n=3) or SE (n=2)

SMILES	HeLa Cells Alamar Blue
Cn1nc(-c2cccs2)cc1N [compound 450, 1‐methyl‐3‐(2‐thienyl)‐1H‐pyrazol‐5‐amine]	89.3 ± 5.5 percentage of controls
Cc1ccc(C)c(C(O)C(=O)O)c1 (stereo not drawn) [compound 454, 2‐(2,5‐dimethylphenyl)‐2‐hydroxyacetic acid]	96.8 ± 12.7 percentage of controls
Cc1nn(C)c2sc(CO)cc12 [compound 467, (1,3‐dimethyl‐1H‐thieno[2,3‐c]pyrazol‐5‐yl)methanol]	67.5 ± 16.4 percentage of controls
OCc1cc(F)cc2c1OCOC2 [compound 476, (6‐fluoro‐4H‐1,3‐benzodioxin‐8‐yl)methanol]	102.6 ± 9.4 percentage of controls
Cl.NCc1ccc2c(c1)CCO2 [compound 496, 2,3‐dihydrobenzo[b]furan‐5‐ylmethylamine hydrochloride]	99.8 ± 15.5 percentage of controls
Nc1ccc2oc3c(c2c1)CCCC3 [compound 516, 6,7,8,9‐tetrahydrodibenzo[b,d]furan‐2‐amine]	108 ± 5.2 percentage of controls
CC(=O)Nc1ccc2c(c1)CCC2=O [compound 535, N1‐(1‐oxo‐2,3‐dihydro‐1H‐inden‐5‐yl)acetamide]	87.3 ± 4.6 percentage of controls
CC(=O)Oc1ccc(C)c2c1CCC2 [compound 541, 7‐methyl‐2,3‐dihydro‐1H‐inden‐4‐yl acetate]	79.8 ± 6.6 percentage of controls
NCc1cccc(CN2CCCC2)c1 [compound 550, [3‐(1‐pyrrolidinylmethyl)phenyl]methanamine]	47.8 ± 11.7 percentage of controls
CN1C2CCC1CC(=NO)C2.Cl [compound 552, 8‐methyl‐8‐azabicyclo[3.2.1]octan‐3‐one oxime hydrochloride]	103.5 ± 9.7 percentage of controls

These compounds were tested against T1, TbINO1 (Trypanosoma brucei brucei, UniProt Q5QQ46) (assay: biochemical). Conditions: Supplementary Table 1; compound 1mM; mean ± SD from Boltzman curve fitting.
T1 sequence (Q5QQ46 1-528): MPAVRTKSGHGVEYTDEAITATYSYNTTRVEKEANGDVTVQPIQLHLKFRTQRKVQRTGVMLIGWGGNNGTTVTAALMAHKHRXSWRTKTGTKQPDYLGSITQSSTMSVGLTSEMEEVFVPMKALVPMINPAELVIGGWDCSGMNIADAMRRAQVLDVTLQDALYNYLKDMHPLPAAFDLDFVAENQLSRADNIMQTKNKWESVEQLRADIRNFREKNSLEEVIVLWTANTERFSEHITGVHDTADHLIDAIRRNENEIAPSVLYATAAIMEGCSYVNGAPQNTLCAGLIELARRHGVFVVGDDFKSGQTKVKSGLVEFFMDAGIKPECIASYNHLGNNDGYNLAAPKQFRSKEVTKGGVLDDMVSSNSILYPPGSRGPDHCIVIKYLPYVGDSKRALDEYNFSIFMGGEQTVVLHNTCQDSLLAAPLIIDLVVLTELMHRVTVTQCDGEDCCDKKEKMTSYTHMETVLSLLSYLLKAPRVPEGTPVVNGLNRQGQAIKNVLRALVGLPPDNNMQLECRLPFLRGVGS
Assay type: binding

SMILES	Tb Ino1 Tm Shift [˚C]
Cn1nc(-c2cccs2)cc1N [compound 450, 1‐methyl‐3‐(2‐thienyl)‐1H‐pyrazol‐5‐amine]	1.1 ± 0.06 °C
Cc1ccc(C)c(C(O)C(=O)O)c1 (stereo not drawn) [compound 454, 2‐(2,5‐dimethylphenyl)‐2‐hydroxyacetic acid]	0.02 ± 0.06 °C
Cc1nn(C)c2sc(CO)cc12 [compound 467, (1,3‐dimethyl‐1H‐thieno[2,3‐c]pyrazol‐5‐yl)methanol]	0.35 ± 0.09 °C
OCc1cc(F)cc2c1OCOC2 [compound 476, (6‐fluoro‐4H‐1,3‐benzodioxin‐8‐yl)methanol]	0.01 ± 0.07 °C
Cl.NCc1ccc2c(c1)CCO2 [compound 496, 2,3‐dihydrobenzo[b]furan‐5‐ylmethylamine hydrochloride]	0.06 ± 0.08 °C
CN1C2CCC1CC(=NO)C2.Cl [compound 552, 8‐methyl‐8‐azabicyclo[3.2.1]octan‐3‐one oxime hydrochloride]	0 ± 0.09 °C

Other lines, results leading:

Tb Ino1 Tm Shift [˚C]	SMILES
0.2 ± 0.07 °C	Nc1ccc2oc3c(c2c1)CCCC3 [compound 516, 6,7,8,9‐tetrahydrodibenzo[b,d]furan‐2‐amine]
0.21 ± 0.07 °C	CC(=O)Nc1ccc2c(c1)CCC2=O [compound 535, N1‐(1‐oxo‐2,3‐dihydro‐1H‐inden‐5‐yl)acetamide]
0.01 ± 0.07 °C	CC(=O)Oc1ccc(C)c2c1CCC2 [compound 541, 7‐methyl‐2,3‐dihydro‐1H‐inden‐4‐yl acetate]
0.03 ± 0.07 °C	NCc1cccc(CN2CCCC2)c1 [compound 550, [3‐(1‐pyrrolidinylmethyl)phenyl]methanamine]

Same assay, conditions: read-out: Tb Ino1 Tm Shift [˚C]

SMILES	ΔTm at 1000 µM
Cc1oc(-c2ccccc2)cc1CO [compound 521, (2‐methyl‐5‐phenyl‐3‐furyl)methanol]	1.27 ± 0.07 °C
COC(=O)c1ccc(F)cc1Cl [compound 531, methyl 2‐chloro‐4‐fluorobenzoate]	0.25 ± 0.07 °C
O=C(O)CCc1c[nH]c2ccccc12 [compound 533, 3‐(1H‐indol‐3‐yl)propanoic acid]	0.73 ± 0.07 °C
Cc1[nH]c2ccc(C(=O)O)cc2c1C [compound 537, 2,3‐dimethyl‐1H‐indole‐5‐carboxylic acid]	0.7 ± 0.08 °C
OCc1ccc(-c2cccs2)cc1 [compound 544, (4‐thien‐2‐ylphenyl)methanol]	0.16 ± 0.08 °C

Results, then the compound that gave them:

ΔTm at 1000 µM	SMILES
0.43 ± 0.07 °C	NC(=O)c1ccccc1C(F)(F)F [compound 532, 2‐(trifluoromethyl)benzamide]
0.12 ± 0.07 °C	Cc1nc(-c2ccc(N)cc2)cs1 [compound 547, 4‐(2‐methyl‐1,3‐thiazol‐4‐yl)phenylamine]

Same assay, conditions: read-out: TbIno1 Tm shift [°C]

ΔTm at 1000 µM	SMILES
4.29 ± 0.07 °C	O=C(O)c1ccccc1-c1ccco1 [compound 520, 2-(2-furyl)benzoic acid]
1.61 ± 0.06 °C	Cc1cc(CO)c(-c2ccccc2)o1 [compound 522, (5-methyl-2-phenyl-3-furyl)methanol]

These compounds were tested on A549 cells (assay: Cytotoxicity against A549 cells, Alamar Blue). Conditions: Homo sapiens, A549, 65 h; Supplementary Table 1; compound 0.5 mM; percentage of controls (n=1).
Assay type: cell-based
Procedure, shortened: as §1

SMILES	viability at 500 µM
O=C(O)c1ccccc1-c1ccco1 [compound 520, 2-(2-furyl)benzoic acid]	124%
Cc1oc(-c2ccccc2)cc1CO [compound 521, (2‐methyl‐5‐phenyl‐3‐furyl)methanol]	57.1%
Cc1cc(CO)c(-c2ccccc2)o1 [compound 522, (5-methyl-2-phenyl-3-furyl)methanol]	27.1%
COC(=O)c1ccc(F)cc1Cl [compound 531, methyl 2‐chloro‐4‐fluorobenzoate]	75.7%
NC(=O)c1ccccc1C(F)(F)F [compound 532, 2‐(trifluoromethyl)benzamide]	59.4%
O=C(O)CCc1c[nH]c2ccccc12 [compound 533, 3‐(1H‐indol‐3‐yl)propanoic acid]	67.2%
Cc1[nH]c2ccc(C(=O)O)cc2c1C [compound 537, 2,3‐dimethyl‐1H‐indole‐5‐carboxylic acid]	74.5%
OCc1ccc(-c2cccs2)cc1 [compound 544, (4‐thien‐2‐ylphenyl)methanol]	80%
Cc1nc(-c2ccc(N)cc2)cs1 [compound 547, 4‐(2‐methyl‐1,3‐thiazol‐4‐yl)phenylamine]	63.2%

Same assay, conditions: Supplementary Table 1; compound 0.5 mM; percentage of controls (n=1)

SMILES	A549 Cells Alamar Blue
Cn1nc(-c2cccs2)cc1N [compound 450, 1‐methyl‐3‐(2‐thienyl)‐1H‐pyrazol‐5‐amine]	90.7 percentage of controls
Cc1ccc(C)c(C(O)C(=O)O)c1 (stereo not drawn) [compound 454, 2‐(2,5‐dimethylphenyl)‐2‐hydroxyacetic acid]	60.8 percentage of controls
Cc1nn(C)c2sc(CO)cc12 [compound 467, (1,3‐dimethyl‐1H‐thieno[2,3‐c]pyrazol‐5‐yl)methanol]	70.7 percentage of controls
OCc1cc(F)cc2c1OCOC2 [compound 476, (6‐fluoro‐4H‐1,3‐benzodioxin‐8‐yl)methanol]	78.9 percentage of controls
Cl.NCc1ccc2c(c1)CCO2 [compound 496, 2,3‐dihydrobenzo[b]furan‐5‐ylmethylamine hydrochloride]	96.7 percentage of controls
Nc1ccc2oc3c(c2c1)CCCC3 [compound 516, 6,7,8,9‐tetrahydrodibenzo[b,d]furan‐2‐amine]	68.2 percentage of controls
CC(=O)Nc1ccc2c(c1)CCC2=O [compound 535, N1‐(1‐oxo‐2,3‐dihydro‐1H‐inden‐5‐yl)acetamide]	76.5 percentage of controls
CC(=O)Oc1ccc(C)c2c1CCC2 [compound 541, 7‐methyl‐2,3‐dihydro‐1H‐inden‐4‐yl acetate]	93.1 percentage of controls
NCc1cccc(CN2CCCC2)c1 [compound 550, [3‐(1‐pyrrolidinylmethyl)phenyl]methanamine]	108.7 percentage of controls
CN1C2CCC1CC(=NO)C2.Cl [compound 552, 8‐methyl‐8‐azabicyclo[3.2.1]octan‐3‐one oxime hydrochloride]	105.3 percentage of controls

From PMC3199943, “Screening the MayBridge Rule of 3 Fragment Library for Compounds That Interact with the Trypanosoma brucei myo-Inositol-3-Phosphate Synthase and/or Show Trypanocidal Activity” (Molecular Biology International, 2011)
